Experiment: Solubility of ganaxolone using water soluble beta cyclodextrins
Assay type: physicochemical
Conditions: using water soluble beta cyclodextrins (beta-sulfobutyl-cyclodextrin, 2-hydroxypropylbetacyclodextrin)
Description: Ganaxolone formulations suitable for intramuscular, subcutaneous, or intravenous injection may comprise physiologically acceptable sterile aqueous or non-aqueous solutions, dispersions, suspensions or emulsions, and sterile powders for reconstitution into sterile injectable solutions or dispersions. Examples of suitable aqueous and non-aqueous carriers, diluents, solvents, or vehicles including water, ethanol, polyols (propylene glycol, polyethylene-glycol, glycerol, cremophor and the like), suitable mixtures thereof, vegetable oils (such as olive oil) and injectable organic esters such as ethyl oleate. Additionally, Ganaxolone can be dissolved at concentrations of >1 mg/ml using water soluble beta cyclodextrins (e.g. beta-sulfobutyl-cyclodextrin and 2-hydroxypropylbetacyclodextrin. Proper fluidity can be maintained, for example, by the use of a coating such as lecithin, by the maintenance of the required particle size in the case of dispersions, and by the use of surfactants. Ganaxolone formulations suitable for subcutaneous injection may also contain additives such as preserving, wetting, emulsifying, and dispensing agents. Prevention of the growth of microorganisms can be ensured by various antibacterial and antifungal agents, such as parabens, benzoic acid, benzyl alcohol, chlorobutanol, phenol, sorbic acid, and the like. […]

CC(=O)[C@H]1CC[C@H]2[C@@H]3CC[C@H]4C[C@](C)(O)CC[C@]4(C)[C@H]3CC[C@]12C [Ganaxolone, 3α-hydroxy-3β-methyl-5α-pregnan-20-one]
dissolved concentration: > 1 mg/mL

— patent US7858609B2, “Solid ganaxolone formulations and methods for the making and use thereof” (Marinus Pharmaceuticals, priority 2005, dated 2010)
